Laboratory results as given in patent publication US9801840B1, “Pharmaceutical composition and use thereof” (priority 2016, dated 2017).
Blank lines part the entries; values can stand above or below the compound they belong to.

Key:
Hep3B cell lines [1] = assay: Cytotoxicity assay (MTT); format: cell-based; conditions: 24 hours
Procedure: (§1) The HCC cell lines: Huh7, HepG2 and Hep3B were obtained from Japanese Collection of Research Bioresources (National Institute of Health Sciences; Japan, JCRB) and maintained in Dulbecco's Modified Eagle's Medium-High Glucose (Invitrogen) medium with 10% fetal bovine serum (FBS), 2 mM L-glutamine (Invitrogen), and 100 μg/mL penicillin-streptomycin (Invitrogen). Cells were cultured in a humidified atmosphere in 5% CO2 at 37° C. A well-known cytotoxicity assays in the art, for example, the assay described by Wang et al. can be performed to study the cytotoxicity of the pharmaceutical composition provided by the present invention. […] The number of viable cells was determined by MTT assay.

Cytotoxicity assay (MTT) = format: cell-based; conditions: human, Huh7 cells (HCC cell line), Huh7, 24 hours
Procedure: as §1

HepG2 cell lines [2] = assay: Cytotoxicity assay (MTT); format: cell-based; conditions: HepG2, 24 hours
Procedure: as §1

Huh7 cell lines [3] = assay: Transwell migration assay; format: cell-based
Procedure: (§2) Then, the cells were seeded into Transwell inserts (8 μm pore; BD Biosciences). The mediums were incubated for 16 hours, and the migrated cells were fixed, stained with crystal violet, and quantified.
(§3) Except for the compound represented by formula (1), the pharmaceutical composition can further comprises at least one known anticancer agent. […] The software was used to estimate the combination index (CI) and Fa (fraction affected by drugs) and to interpret the combined effect of drugs. CI<1, CI=1, and CI>1 respectively indicate synergistic, additive, and antagonistic effects.

Hep3B cell lines [4] = assay: Transwell migration assay; format: cell-based; conditions: 1-16 μM, 16 hours
Procedure: as §2, §3

HepG2 cell lines [5] = assay: Transwell migration assay; format: cell-based; conditions: HepG2, 1-16 μM, 16 hours
Procedure: as §2, §3

p-FAK (Tyr397) = assay: Immunohistochemistry of excised xenograft tumors; format: in vivo; conditions: HCC xenograft mice, CA 5 mg/kg/day
From the text: (§4) Tumor samples obtained from experiment 4-1 were fixed in 10% […], embedded in paraffin, and sectioned. The tissue sections were then subjected to immunohistochemical staining with the Novolink Polymer Detection System (Leica Biosystems). The sections were stained for p-VEGFR2 (Tyr951, Cell Signaling Technology), Ki-67 and p-FAK (Tyr397) (Santa Cruz Biotechnology), and the nuclei were counterstained with hematoxylin.

p-VEGFR2 (Tyr951) = assay: Immunohistochemistry of excised xenograft tumors; format: in vivo; conditions: HCC xenograft mice, CA 5 mg/kg/day
From the text: as §4

Src = assay: Immunoprecipitation and Western blot analysis, Huh7 cell lines; format: cell-based; conditions: Huh7, 15 mins treatment
Huh7 cell lines [6] = assay: G-actin/F-actin activity assay; format: cell-based; conditions: Huh7, 6 hours, vs control
Procedure: Actin activity assay can be conducted by known methods, for example, the method described in Shum et al. (2011). Briefly, Huh7 cell lines were cultured by the method described in Example 2 and treated with 0.1% DMSO (control) or CA for 6 hours and incubated in stabilizing buffer (1% Triton X-100, 1 μg phalloidin, and protease inhibitor cocktail) at room temperature for 5 mins. Cell lysates were collected, followed by centrifugation at 100,000×g at 37° C. for 1 hour. The supernatant was removed and saved as the G-actin fraction. The pellet was washed twice with PBS and dissolved in dissolving buffer solution (1% Triton X-100, 2% SDS, and protease inhibitor cocktail) by sonication, the mixture was put on ice for 1 h, and saved as the F-actin fraction.

VEGFR2 = assay: Immunoprecipitation and Western blot analysis, Huh7 cell lines; format: cell-based; conditions: Huh7, 15 mins treatment, vs control
Procedure: The lysates were then sonicated and centrifuged. The supernatant was kept and incubated with anti-VEGFR1 antibody, anti-VEGFR2 antibody, and anti-VEGFR3 antibody (Santa Cruz Biotechnology, Inc.) overnight at 4° C. The immune-complexes were washed and eluted, and then analyzed by Western blotting.

cdc42 = assay: Rho GTPase activity assay (GST pull-down, Western blot), Huh7 cell lines; format: cell-based; conditions: Huh7, 6 hours
Procedure: Huh7 cell lines were cultured by the method described in Example 2 and treated with 0.1% DMSO (control) or CA for 6 hours and then collected. After the Huh7 cell lines were lysed, the cell lysates (500 μg) were combined with purified GST fusion protein which has conjugated with Rac1, RhoA, or cdc42 binding domain (PAK-PBD for Rac1 and cdc42, Raf-RBD for RhoA) and incubated at 4° C. overnight. The immune-complex was precipitated and then centrifuged at 14,000 rpm for 30 mins. The samples were washed with RIPA buffer solution, boiled with SDS sample buffer solution, and analyzed by Western blot analysis.

FAK (Tyr397) = assay: Immunoprecipitation and Western blot analysis, Huh7 cell lines; format: cell-based; conditions: Huh7, 15 mins treatment
Huh7 cell lines [7] = assay: Antitumor response in vivo, Huh7 xenograft; design: species or system mice; conditions: 5 mg/kg/day intraperitoneal
Procedure: All animal experiments were conducted according to the guidelines approved by the Institutional Animal Care and Use Committees of the College of Medicine, National Taiwan University and National Taiwan Normal University. The study was approved by the Animal Care and Use Committees of the College of Medicine, National Taiwan University and National Taiwan Normal University. Male NOD/SCID mice (4-6 weeks old) (obtained from BioLASCO Taiwan Co., Ltd) were housed into individually-ventilated cages with free access to food and drinking water. […] The tumor volume was calculated by the following equation: tumor volume(mm^3)=(length [mm])×(width [mm])^2×0.5.

[8] = molecular target: T1, VEGFR2 (kinase insert domain receptor, KDR) (Homo sapiens, UniProt P35968); assay: ADP-Glo kinase activity assay; format: biochemical; conditions: 10 μM ATP, read-out: concentration inhibiting VEGFR2 activity by 50%
T1 construct: purchased Promega V2681
Procedure: Briefly, CA was first diluted with a kinase reaction buffer solution at a 1:2 dilution ratio. Three nanograms of kinase insert domain receptor (KDR, #V2681, Promega) were added and incubated for 10 mins. Then, 0.1 μg/μL substrate and 10 μM ATP were added and incubated for 1 hour at room temperature. Next, 25 μL of ADP-Glo reagent was added to the mixture and incubated at room temperature for 40 mins. Finally, 50 μL of a kinase detection reagent was added to introduce luciferase and samples were measured.

Huh7 cell lines [9] = assay: Confocal microscopy analysis of p-FAK (Tyr397) and F-actin; format: cell-based; conditions: Huh7, 6 hour
Procedure: Huh7 cell lines cultured by the method described in Example 2 were seeded on a 22×22 cover slip and treated with 0.1% DMSO (control) or CA for 6 hour. The cells were washed, fixed, and permeabilized with 0.25% Triton X-100 for 10 mins. Next, the cover slips were incubated with p-FAK (Tyr397) primary antibody overnight, and then stained with Alexa488 (anti-rabbit) and Alexa568-phallodin (20 mU/mL) for 1 hour in darkness. Finally, the samples were counterstained for nuclei with DAPI (10 ng/mL) for 10 mins. The images were captured and analyzed using the Leica TCS SP5 Spectral Confocal System. The actin filament intensity was measured by ImageJ (NIH) and calculated by the following formula described by Bennett et al. (2013): Corrected total cell fluorescence (CTCF)=Integrated Density−(Area of selected cell×Mean fluorescence of background readings).

FAK = conditions: xenograft model
Procedure: To study the combinatorial effect of CA and sorafenib, Huh7 cell lines (5×10^6 cells) were suspended in 100 μL of Opti-MEM with matrigel-matrix, and injected subcutaneously into the flanks of each mouse. After one week, the mice were treated with 50 μL DMSO (control) and combined compounds by intraperitoneal injection (n=5 for each group) for 20 days.
At the end of the experiment, the mice were sacrificed. The tumors were excised, weighed, and fixed for further studies.

T1 sequence (P35968 20-1356): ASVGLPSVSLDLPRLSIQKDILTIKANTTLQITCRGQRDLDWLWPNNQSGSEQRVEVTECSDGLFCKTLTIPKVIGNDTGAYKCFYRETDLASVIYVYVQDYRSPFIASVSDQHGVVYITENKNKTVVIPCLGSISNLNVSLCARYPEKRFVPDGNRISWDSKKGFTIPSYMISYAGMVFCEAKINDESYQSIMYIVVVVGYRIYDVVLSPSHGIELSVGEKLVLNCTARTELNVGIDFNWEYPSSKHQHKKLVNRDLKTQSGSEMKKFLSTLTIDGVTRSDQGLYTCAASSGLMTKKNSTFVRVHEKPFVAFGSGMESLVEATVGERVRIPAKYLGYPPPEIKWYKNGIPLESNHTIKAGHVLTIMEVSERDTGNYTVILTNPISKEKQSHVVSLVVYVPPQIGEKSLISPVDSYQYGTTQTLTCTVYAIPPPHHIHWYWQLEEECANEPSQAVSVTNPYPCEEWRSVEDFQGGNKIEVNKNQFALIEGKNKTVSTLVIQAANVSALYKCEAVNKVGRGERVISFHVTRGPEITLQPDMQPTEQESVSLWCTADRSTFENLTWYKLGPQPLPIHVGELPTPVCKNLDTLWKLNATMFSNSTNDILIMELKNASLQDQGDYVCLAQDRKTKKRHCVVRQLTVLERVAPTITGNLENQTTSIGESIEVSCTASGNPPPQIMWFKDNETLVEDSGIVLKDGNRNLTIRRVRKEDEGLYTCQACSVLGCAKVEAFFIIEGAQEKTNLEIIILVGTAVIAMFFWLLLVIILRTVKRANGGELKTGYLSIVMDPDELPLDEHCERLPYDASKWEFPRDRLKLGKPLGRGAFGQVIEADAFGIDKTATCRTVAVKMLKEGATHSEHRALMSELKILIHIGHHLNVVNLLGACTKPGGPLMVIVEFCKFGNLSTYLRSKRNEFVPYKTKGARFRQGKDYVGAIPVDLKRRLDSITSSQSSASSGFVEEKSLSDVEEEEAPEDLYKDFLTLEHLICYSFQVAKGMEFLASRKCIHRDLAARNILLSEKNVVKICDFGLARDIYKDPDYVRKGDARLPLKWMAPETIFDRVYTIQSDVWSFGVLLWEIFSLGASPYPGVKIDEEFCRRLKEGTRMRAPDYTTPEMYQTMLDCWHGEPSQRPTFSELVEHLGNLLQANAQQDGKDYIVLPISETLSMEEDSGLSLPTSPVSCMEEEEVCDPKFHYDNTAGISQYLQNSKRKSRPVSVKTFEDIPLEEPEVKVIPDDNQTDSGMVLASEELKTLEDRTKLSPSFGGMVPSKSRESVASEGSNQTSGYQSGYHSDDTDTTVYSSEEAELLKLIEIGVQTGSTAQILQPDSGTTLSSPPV

IC50 (cdc42; Homo sapiens, Huh-7, read-out: concentration reducing the activity of cdc42 by 50%): 2000 nM
IC50 [8]: ~950 nM
SMILES: C[C@H]1[C@H](C)CC[C@]2(C(=O)O)CC[C@]3(C)C(=CC[C@@H]4[C@@]5(C)C[C@@H](O)[C@H](O)C(C)(C)[C@@H]5CC[C@]43C)[C@H]12 [CA, corosolic acid]
cytotoxicity (Hep3B cell lines [1]): lower cytotoxicity
IC50 at 24 h (Cytotoxicity assay (MTT)): 50000 nM
cytotoxicity (HepG2 cell lines [2]): lower cytotoxicity
IC50 cytotoxicity/IC50 migration (Huh7 cell lines [3]; HCC cell lines): ≥ 20
inhibition of migration (Huh7 cell lines [3]; Huh7, 1-16 μM, 16 hours): effectively inhibited the migration
inhibition of migration (Hep3B cell lines [4]): effectively inhibited the migration
inhibition of migration (HepG2 cell lines [5]): effectively inhibited the migration
phosphorylation of FAK in tumor (immunohistochemistry) (p-FAK (Tyr397)): reduced phosphorylation of both VEGFR2 and FAK significantly
phosphorylation of VEGFR2 in tumor (immunohistochemistry) (p-VEGFR2 (Tyr951)): reduced phosphorylation of both VEGFR2 and FAK significantly
phosphorylation level of Src (Src): down-regulated
ratio of F-actin/G-actin (polymer/monomer) (Huh7 cell lines [6]): reduces
phosphorylation level of VEGFR2 (VEGFR2): lower
activated cdc42 (cdc42): significantly down-regulated
phosphorylation level of FAK (Tyr397) (FAK (Tyr397)): down-regulated
reduction in tumor mass as compared with the control group (Huh7 cell lines [7]; 21 days): 85%
volumes of the tumor (Huh7 cell lines [7]; after 21-day treatment): 63±19 mm^3
co-localization of phosphorylation of FAK (Tyr397) and F-actin on the filopodium (Huh7 cell lines [9]): decreases

SMILES: CNC(=O)c1cc(Oc2ccc(NC(=O)Nc3ccc(Cl)c(C(F)(F)F)c3)cc2)ccn1 [sorafenib]
phosphorylation level / activation of FAK kinase in the tumor in the mice (FAK): didn't show any inhibitory effect

SMILES: C[C@H]1[C@H](C)CC[C@]2(C(=O)O)CC[C@]3(C)C(=CC[C@@H]4[C@@]5(C)CC[C@H](O)C(C)(C)[C@@H]5CC[C@]43C)[C@H]12 [ursolic acid, 3β-hydroxyurs-12-ursen-28-ic acid, reference compound]
inhibitory activity to cell migration (FIG. 2D comparison) (Huh7 cell lines [3]; Huh7, CA vs sorafenib vs ursolic acid): did not show significant inhibitory activity
